Measurements from ChEMBL document CHEMBL4483862, “Open-source discovery of chemical leads for next-generation chemoprotective antimalarials” (2018).

Test system: Plasmodium berghei
Assay: Luciferase/luciferin-expressing antifolate-resistant parasites were used to infect a culture of HepG2 cells that were pre-incubated with compounds. Infected hepatocytes emit light due to the luciferase reaction. Assay results are presented as the percent inhibition of light emission compared to control. […]
Type: functional
Conditions: sporozoite; for IC90: read-out: LUCIFERASE INFECTION ASSAY - IC90
[1] = read-out: LUCIFERASE INFECTION ASSAY - IC50

Row | SMILES | IC90 [µM] | IC50 [1] [µM] | other results
1 | Nc1ncnc(Sc2nnnn2-c2ccccc2)c1[N+](=O)[O-] | > 10 |  | IC50 (HEPG2TOX_HILL_SLOPE 9.17, HEPG2TOX_R_SQUARED 0.951, read-out: LUCIFERASE INFECTION ASSAY - IC50): > 10 µM
2 | Cc1csc(NC(=O)Nc2cc(C(F)(F)F)cc(C(F)(F)F)c2)c1 | 3.4 |  | IC50 (HEPG2TOX_HILL_SLOPE 15.4, HEPG2TOX_R_SQUARED 0.694, PBLUC_HILL_SLOPE 2.82, PBLUC_R_SQUARED 0.474, read-out: LUCIFERASE INFECTION ASSAY - IC50): 1.56 µM
3 | CN(C)S(=O)(=O)c1cccc(NC(=O)c2ccc(-n3cnc4ccccc43)cc2)c1 | 6.32 |  | IC50 (HEPG2TOX_HILL_SLOPE 0.179, HEPG2TOX_R_SQUARED 0.448, PBLUC_HILL_SLOPE 2.55, PBLUC_R_SQUARED 0.642, read-out: LUCIFERASE INFECTION ASSAY - IC50): 2.67 µM
4 | CC(C)(C)NC(=O)c1csc(C(O)c2cccc(C(F)(F)F)c2)n1 (centres undefined) | > 10 |  | IC50 (HEPG2TOX_HILL_SLOPE 14.6, HEPG2TOX_R_SQUARED 0.662, PBLUC_HILL_SLOPE 2.89, PBLUC_R_SQUARED 0.602, read-out: LUCIFERASE INFECTION ASSAY - IC50): 4.91 µM
5 | CN(C)c1ccccc1-c1cn2c(-c3ccc4ncccc4c3)cnc2cn1 | > 9.03 |  | IC50 (HEPG2TOX_HILL_SLOPE 7.2, HEPG2TOX_R_SQUARED 0.832, read-out: LUCIFERASE INFECTION ASSAY - IC50): > 9.03 µM
6 | COc1ccc(OC)c(/C=C/C(=O)Nc2cc(C(F)(F)F)ccc2Oc2ccc(Br)cc2)c1 | > 10 |  | IC50 (FFLUC_HILL_SLOPE 11.8, FFLUC_R_SQUARED 0.49, HEPG2TOX_HILL_SLOPE 2.88, HEPG2TOX_R_SQUARED 0.666, read-out: LUCIFERASE INFECTION ASSAY - IC50): > 10 µM
7 | Cc1ccc(S(=O)(=O)Nc2cccc3ncccc23)s1 | 3.72 |  | IC50 (HEPG2TOX_HILL_SLOPE 1.87, HEPG2TOX_R_SQUARED 0.954, PBLUC_HILL_SLOPE 8.9, PBLUC_R_SQUARED 0.583, read-out: LUCIFERASE INFECTION ASSAY - IC50): 2.91 µM
8 | CS(=O)(=O)c1ccc(C(F)(F)F)cc1[N+](=O)[O-] | > 12.3 | > 12.3 | 
9 | Cc1ccc2c(c1)C1CN(C)CCC1N2C(=O)c1cc2c(s1)CCCC2 (centres undefined) | > 10 |  | IC50 (PBLUC_HILL_SLOPE 0.917, 1.13, PBLUC_R_SQUARED 0.241, 0.572, read-out: LUCIFERASE INFECTION ASSAY - IC50): 2.93 µM
10 | CCOc1ccc2c(c1)O/C(=C\c1cc(Cl)cc3c1OCOC3)C2=O | 6.53 |  | IC50 (HEPG2TOX_HILL_SLOPE 2.45, HEPG2TOX_R_SQUARED 0.948, PBLUC_HILL_SLOPE 1.42, PBLUC_R_SQUARED 0.8, read-out: LUCIFERASE INFECTION ASSAY - IC50): 1.39 µM
11 | Cn1c(N)c(C(=O)COC(=O)c2ccccc2NCCC2=CCCCC2)c(=O)n(C)c1=O | > 10 | > 10 | 
12 | O=c1cc(CN2CCN(C(c3ccc(F)cc3)c3ccc(F)cc3)CC2)nc2ccc(Cl)cn12 | 9.88 |  | IC50 (PBLUC_HILL_SLOPE 16, PBLUC_R_SQUARED 0.275, read-out: LUCIFERASE INFECTION ASSAY - IC50): 8.61 µM
13 | Clc1ccc(SCc2cc(N3CCOCC3)nc(-c3ccccn3)n2)cc1 | 4.86 | 4.81 | 
14 | CC(C)c1nccn1Cc1cccc(NC(=O)c2ccc(Br)o2)c1 | > 10 | > 10 | 
15 | Cc1ccc(Nc2cc(-c3ccc(CC(C)C)cc3)ncn2)cc1NS(C)(=O)=O | > 8.04 |  | IC50 (PBLUC_HILL_SLOPE 12.9, PBLUC_R_SQUARED 0.53, read-out: LUCIFERASE INFECTION ASSAY - IC50): 7.03 µM
16 | CC(=O)n1ncc(Sc2ccc(Cl)cc2)c1-c1ccc(Cl)cc1 | > 9.08 |  | IC50 (FFLUC_HILL_SLOPE 25.1, FFLUC_R_SQUARED 0.0752, read-out: LUCIFERASE INFECTION ASSAY - IC50): > 9.08 µM
17 | O=C(Nc1cccc(Cl)c1)Nc1nc2ccccc2[nH]1 | > 10 | > 10 | 
18 | Cc1nn(Cc2ccccc2)c2sc(C(=O)Nc3nc4ccccc4[nH]3)cc12 | 0.562 |  | IC50 (HEPG2TOX_HILL_SLOPE 0.737, HEPG2TOX_R_SQUARED 0.843, PBLUC_HILL_SLOPE 3.70, 1.65, PBLUC_R_SQUARED 0.424, 0.851, read-out: LUCIFERASE INFECTION ASSAY - IC50): 0.229 µM
19 | CCOC(=O)c1sc(SCc2ccccc2)c2c1CC(c1ccc(C)cc1)CC2O (centres undefined) | > 7.52 |  | IC50 (FFLUC_HILL_SLOPE 27.4, FFLUC_R_SQUARED 0.148, read-out: LUCIFERASE INFECTION ASSAY - IC50): > 7.52 µM
20 | CCC(C)(C)c1ccc(OCC(=O)Nc2cccc(-c3nc(C)sc3C(=O)Nc3cc(Cl)ccc3Cl)c2)c(C(C)(C)CC)c1 | > 10 | > 10 | 
21 | Cc1ccccc1CN1CCN(c2cc(=O)n3ccccc3n2)CC1 | > 10 | 6.42 | 

Row | SMILES | IC90 [µM] | IC50 [1] [µM] | other results
22 | O=C(/C=C/c1cccc(NC(=O)c2ccccc2Cl)c1)c1ccc2c(c1)-c1ccccc1C2 | > 10 | > 10 | 
23 | COc1ccc(CCn2nc(C(=O)NC3CC3)c3c2CCN(C(=O)c2cc4cc(C)ccc4[nH]2)C3)cc1 | > 6.63 |  | IC50 (FFLUC_HILL_SLOPE 11.9, FFLUC_R_SQUARED 0.277, PBLUC_HILL_SLOPE 2.4, PBLUC_R_SQUARED 0.763, read-out: LUCIFERASE INFECTION ASSAY - IC50): 2.8 µM
24 | CN(C)c1cccc(CNc2nccc3nc(-c4cccc(F)c4)[nH]c23)c1 | 5.76 |  | IC50 (HEPG2TOX_HILL_SLOPE 3.96, HEPG2TOX_R_SQUARED 0.788, PBLUC_HILL_SLOPE 4.1, PBLUC_R_SQUARED 0.415, read-out: LUCIFERASE INFECTION ASSAY - IC50): 3.37 µM
25 | O=C(CN1CCNCC1)N1CCOCC1 | > 15.5 | > 15.5 | 
26 | CCCS(=O)(=O)c1cnc(C2COc3ccccc3O2)nc1N (centres undefined) | 1.07 |  | IC50 (FFLUC_HILL_SLOPE 3.81, FFLUC_R_SQUARED 0.729, PBLUC_HILL_SLOPE 0.615, PBLUC_R_SQUARED 0.774, read-out: LUCIFERASE INFECTION ASSAY - IC50): 0.0301 µM
27 | Cc1nn(-c2ccccc2)c2sc(-c3[nH]nc(-c4ccccc4)c3-c3nc4ccccc4[nH]3)cc12 | 7.66 |  | IC50 (FFLUC_HILL_SLOPE 1.87, FFLUC_R_SQUARED 0.663, HEPG2TOX_HILL_SLOPE 0.372, HEPG2TOX_R_SQUARED 0.356, PBLUC_HILL_SLOPE 1.24, PBLUC_R_SQUARED 0.688, read-out: LUCIFERASE INFECTION ASSAY - IC50): 1.3 µM
28 | O=C(Nc1ccnn1-c1nc2ccccc2[nH]1)C(c1ccccc1)c1ccccc1 | 9.69 | 5.95 | 
29 | FC(F)(F)c1nc(N2CCN(c3ccncc3)CC2)c2ccccc2n1 | > 10 |  | IC50 (PBLUC_HILL_SLOPE 1.73, PBLUC_R_SQUARED 0.515, read-out: LUCIFERASE INFECTION ASSAY - IC50): 4.07 µM
30 | CCc1ccccc1NC(=O)C(C)SCc1ccccc1 (centres undefined) | > 11 |  | IC50 (PBLUC_HILL_SLOPE 11.9, PBLUC_R_SQUARED 0.654, read-out: LUCIFERASE INFECTION ASSAY - IC50): 9.84 µM
31 | CC(NC(=O)NC(=O)c1ccccc1)C1CC2CCC1C2 (centres undefined) | > 10 | > 10 | 
32 | Cc1nc2sccn2c1C(=O)c1ccc(NS(=O)(=O)c2cc(C(=O)O)n(C)c2)cc1 | > 10 | > 10 | 
33 | Cc1cc(C(C)(C)C)cc(C(C)(C)C)[s+]1 | 7.78 |  | IC50 (HEPG2TOX_HILL_SLOPE 3.48, HEPG2TOX_R_SQUARED 0.99, PBLUC_HILL_SLOPE 2.71, PBLUC_R_SQUARED 0.511, read-out: LUCIFERASE INFECTION ASSAY - IC50): 3.46 µM
34 | Cc1ccccc1OC1=C(Cl)C(=O)c2ccccc2C1=O | 9.86 |  | IC50 (FFLUC_HILL_SLOPE 16.7, FFLUC_R_SQUARED 0.318, HEPG2TOX_HILL_SLOPE 9.14, HEPG2TOX_R_SQUARED 0.751, PBLUC_HILL_SLOPE 4.24, PBLUC_R_SQUARED 0.127, read-out: LUCIFERASE INFECTION ASSAY - IC50): 5.87 µM
35 | COc1cc(C(=O)N(C)C(c2ccccc2)c2ccccc2)ccc1OCC(C)C | > 10 |  | IC50 (FFLUC_HILL_SLOPE 13.6, FFLUC_R_SQUARED 0.558, HEPG2TOX_HILL_SLOPE 7.8, HEPG2TOX_R_SQUARED 0.217, read-out: LUCIFERASE INFECTION ASSAY - IC50): > 10 µM
36 | O=C(Cn1cnc2cc(N3CCOCC3)c([N+](=O)[O-])cc2c1=O)c1ccc(C2CCCCC2)cc1 | > 10 | > 10 | 
37 | CCOC(=O)c1c(C)oc2nc(CN(C)Cc3ccc(OCC)cc3)nc(N)c12 | 8.75 |  | IC50 (PBLUC_HILL_SLOPE 4.1, PBLUC_R_SQUARED 0.674, read-out: LUCIFERASE INFECTION ASSAY - IC50): 5.12 µM
38 | COc1ccc(NC(=O)C(C)N2CCN(CCc3ccccc3)CC2)cc1Cl (centres undefined) | > 10 | > 10 | 
39 | O=c1cc(C(F)(F)F)[nH]c2cc(C(F)(F)F)ccc12 | 4.25 |  | IC50 (PBLUC_HILL_SLOPE 15.4, PBLUC_R_SQUARED 0.673, read-out: LUCIFERASE INFECTION ASSAY - IC50): 3.68 µM
40 | COc1ccc(CCN(C)c2ccc(S(=O)(=O)N(C(C)C)C(C)C)cn2)cc1OC | > 10 |  | IC50 (PBLUC_HILL_SLOPE 2.91, PBLUC_R_SQUARED 0.109, read-out: LUCIFERASE INFECTION ASSAY - IC50): 5.86 µM
41 | Nc1ccc(-c2cn3c(-c4ccc(O)cc4)cnc3cn2)cn1 | > 10.9 |  | IC50 (PBLUC_HILL_SLOPE 11.6, PBLUC_R_SQUARED 0.257, read-out: LUCIFERASE INFECTION ASSAY - IC50): 10.2 µM
42 | CS(=O)(=O)Nc1cccc(-c2cn3c(-c4ccc(Cl)cc4)cnc3cn2)c1 | 1.05 |  | IC50 (HEPG2TOX_HILL_SLOPE 10.9, HEPG2TOX_R_SQUARED 0.801, PBLUC_HILL_SLOPE 12.2, PBLUC_R_SQUARED 0.805, read-out: LUCIFERASE INFECTION ASSAY - IC50): 0.873 µM
